Source: patent publication US12409187B2, “PH regulating hydrogels that neutralize cancer cell environment acidosis and increase chemotherapy efficacy” (Brown University, priority 2021, dated 2025)

What was measured:
Format in all cases: cell-based, human
[1] = system: MDA-MB-231 breast cancer cells; assay: pH-dependent doxorubicin efficacy on cell proliferation; conditions: 0.25 μM doxorubicin, 5-day treatment
[2] = system: MDA-MB-231 breast cancer cell line; assay: Cell proliferation assay (image confluency, manual cell count); conditions: 1 μM doxorubicin
Method: Cell viability. Incubated MDA-MB-231 cells were passaged from a confluent T-flask into a 12-well culture plate, and the treatment hydrogels were added. For the viability study, the effect of modified PEG hydrogels bicarbonate concentrations of 200, 400, 600, and 800 mM was analyzed along with the control group with no treatment (bicarbonate), and a vehicle control of PEG with no bicarbonate. The cells were imaged every twenty-four hours under Nikon TS 100 inverted light microscope attached with Excelis HD camera and processed using an ImageJ image processing macro (performed by Gavin Mays) to estimate cell confluency from the imaged area coverage. At the end of day 5, the number of live and dead cells were estimated by Trypan staining and cell counting using a hemocytometer. Percentage viability was calculated from the number of live cells as a fraction of total cells.
Cell proliferation assay. MDA-MB-231 breast cancer cell line. Cells given pH, hydrogel, sodium bicarbonate, and doxorubicin treatment. At twenty-four hours, cell confluency is observed and recorded via image processing. At Day 6, cell counting was performed using a hemocytometer. All assays increased in confluency. […] Assays without hydrogels consistent with confluency analysis. Assays with any hydrogel have low manual cell counts.

MDA-MB-231 cells = assay: MTT assay (metabolic activity), Example 2; conditions: 1 μM doxorubicin
Method: MTT assay. Measures metabolic activity. Cells reduce membrane permeable salt MTT (yellow) to formazan crystals (purple). Incubate for three days with treatment. Incubate for four hours with MTT. Add solubilization solution. Incubate for twelve hours. Measure absorbance of every well at OD570 nm-OD650 nm. See Riss et al., The Assay Guidance Manual (Eli Lilly & Company and the National Center for Advancing Translational Sciences. Bethesda, MD, USA, 2016). Hydrogels added to 7.4 pH with no drug had decreased metabolic activity. Hydrogels added to 6.5 pH with drug had decreased metabolic activity. Base-releasing hydrogel reduced cell proliferation, migration, and metabolic activity at an alkaline pH. Base-releasing hydrogel improved doxorubicin efficacy against cell proliferation, migration, and metabolic activity at an alkaline pH. Neutral-pH-adapted cells prefer neutral pH.
The metabolism of cancer cells can be measured by the activity of the mitochondrial reductase enzyme. […] The metabolic activity of the cells in culture can be measured by this conversion of MTT to formazan crystals. The absorbance can then be recorded at OD570 nm and OD650 nm to quantify the formazan produced by the cells through the mitochondrial reductase conversion from MTT. […] The absorbance is measured spectrophotometrically via a plate reader.

## COc1cccc2c1C(=O)c1c(O)c3c(c(O)c1C2=O)C[C@@](O)(C(=O)CO)C[C@@H]3O[C@H]1C[C@H](N)[C@H](O)[C@H](C)O1 [doxorubicin]
[1]; pH 6.5
  efficacy at preventing cell proliferation: 40%
[1]; pH 7.4
  effectiveness at preventing cell proliferation: approximately 95%
[2]
  change of cell proliferation over the six-day trial period: decrease
MDA-MB-231 cells
  metabolic activity versus assays without doxorubicin: statistically significantly less metabolic activity
